Assay results reported in patent US9132129B2, “Antiviral compounds” (KATHOLIEKE UNIVERSITEIT LEUVEN, priority 2010, dated 2015).

Tests used:
Format in all cases: cell-based
HIV-1(NL4.3) = experiment: MT4 based cytopathic effect assay (anti-HIV activity); conditions: Human immunodeficiency virus 1, MT4; HIV-infected MT-4 cells, MTT, 50% protection
Experimental: MT4 based Cytopathic Effect Assay
(§1) A rapid and automated assay procedure was used for the in vitro evaluation of anti-HIV agents. An HTLV-1 transformed T4-cell line MT-4, which was previously shown to be highly susceptible to and permissive for HIV infection, served as the target cell line. Inhibition of the HIV-induced cytopathogenic effect was used as the end point. The viability of both HIV- and mock-infected cells was assessed spectrophotometrically via in situ reduction of 3-(4,5-dimethylthiazol-2-yl)-2,5-diphenyltetrazolium bromide (MTT). […] The percent protection achieved by the compound in HIV-infected cells was calculated by the following formula:
[formula] whereby (ODT)HIV is the optical density measured with a given concentration of the test compound in HIV-infected cells; (ODC)HIV is the optical density measured for the control untreated HIV-infected cells; (ODC)MOCK is the optical density measured for the control untreated mock-infected cells; all optical density values were determined at 540 nm. […] The ratio of CC50 to EC50 was defined as the selectivity index (SI).
(§2) Cells: MT-4 cells (Miyoshi et al., 1982) were grown and maintained in RPMI 1640medium supplemented with 10% heat-inactivated fetal calf serum, 2 mM I-glutamine, 0.1% sodium bicarbonate, and 20æg of gentamicin per ml.
Viruses: The HIV-1(NL4.3) strain (Adachi et al., 1986) is a molecular clone obtained from the National Institutes of Health (Bethesda, Md.).

[1] = MT4 cytotoxicity in mock-infected cells (MTT); conditions: human, mock-infected MT-4 cells
Experimental: as §1, with “formula: […]” for “formula:”
Examples of inhibition of cell proliferation by particular compounds of the invention can be found by looking at the respective CC50 values in the MT-4 cell line.
as §2

in vitro = conditions: human
Experimental: The MT-2 based antiviral assay requires a separate cytotoxicity assessment of the compounds. This was performed using a 3 day MT-2 cytotoxicity assay as follows:
3 Day MT2 Cytotoxicity Assay (S8738E)
The assay is designed to test whether or not compounds have cytotoxic activity in MT2 cells by measuring the viability of these cells in the presence of compounds. The assay is carried out by adding MT2 assay plates containing serial dilutions of the compounds to be screened. After 3 days incubation, the viability of the cells remaining in the plates is assayed using the commercially available reagent CellTiter-Glo (Promega Ltd).

[2] = system: HIV-1 virus (NL4.3 strain); experiment: MT-2 based antiviral assay (S8737E); conditions: Human immunodeficiency virus 1, 72 h; MT2 cells, 3 days, JC53BL β-Gal reporter readout
Text: MT-2 Based Antiviral Assay (S8737E)
Much like the MT-4 based cytopathic effect assay, this assay is designed to determine the effects of small molecules on the replication of HIV-1 in the lymphobastoid cell line, MT2, and is able to detect the antiviral effect of compounds acting at any stage of the HIV-1 replication cycle. The assay, along with its associated cytotoxicity assay, was described in detail in 2005 in a paper by Cao et al (Antimicrobial Agents and Chemotherapy 2005; 49(9), p 3833-3841).
Briefly; MT2 cells are infected with the HIV-1 virus (NL4.3 strain) and transferred to assay plates containing serial dilutions of compounds to be tested. The assay plates are incubated for 3 days (MT2) to allow for several rounds of viral replication/infection to take place. At the end of this time, supernatant is transferred into new plates containing JC53BL cells.
JC53BL cells express CXCR4, CCR5 and CD4 receptors, and HIV-1-LTR-β-Gal. Under normal culture conditions undetectable levels of β-Galactosidase are expressed, but in the presence of HIV-1, the viral Tat protein is able to activate the HIV-1-LTR in the JC53BL cells resulting in the increased expression of the β-Gal enzyme. The expression can be measured using the ‘FluorAce β-Galactosidase reporter’ assay. The levels of β-Gal are directly proportional to the levels of Tat (up to a threshold) allowing virus quantification. Compounds that inhibit virus replication will give rise to a reduced signal and a dose-response curve for each compound can be generated. This is then used to determine the IC50 for each compound, a measure of the compound's potency, in a manner similar to the MT-4 based cytopathic effect assay.

EC50 (HIV-1(NL4.3)) | SMILES | CC50 [1] | CC50 at 3 days (in vitro) | EC50 [2]
4.5 µM | CCCC(C(=O)O)c1c(C)nc2ccc3c(c2c1-c1ccc(C)cc1)CCC3 (centres unmarked) [Cpd023, 2-(3-methyl-1-p-tolyl-8,9-dihydro-7H-cyclopenta[f]quinolin-2-yl)pentanoic acid] | 114 µM | – | –
– | Cc1ccc(-c2c(C(OC(C)(C)C)C(=O)O)c(C)nc3cc4c(cc23)CCCC4)cc1 (centres unmarked) [Cpd002, tert-butoxy-(2-methyl-4-p-tolyl-6,7,8,9-tetrahydro-benzo[g]quinolin-3-yl)-acetic acid] | – | > 10 µM | 0.46 µM
1.45 µM | CCCC(C(=O)O)c1c(C)nc2ccc3c(c2c1-c1ccc(C)cc1)CCCC3 (centres unmarked) [Cpd003, 2-(3-methyl-1-4-p-tolyl-7,8,9,10-tetrahydrobenzo[f]quinolin-2-yl)pentanoic acid] | 92 µM | – | –
1.45 µM | CCCC(C(=O)O)c1c(C)nc2cc3c(cc2c1-c1ccc(C)cc1)CCCC3 (centres unmarked) [Cpd001, 2-(-2-methyl-4-p-tolyl-6,7,8,9-tetrahydrobenzo[g]quinolin-3-yl)pentanoic acid] | 92 µM | – | –
– | CCCC(C(=O)O)c1c(C)nc2c3ccccc3nn2c1-c1ccc(C)cc1 (centres unmarked) [Cpd047, 2-(2-methyl-4-p-tolylpyrimido[1,2-b]indazol-3-yl)pentanoic acid] | 200 µM | – | > 20 µM

SMILES | EC50 (HIV-1(NL4.3)) | CC50 [1] | CC50 at 3 days (in vitro) | EC50 [2]
CCCC(C(=O)O)c1c(C)nc2cc3c(cc2c1-c1ccc(C)cc1)CCC3 (centres unmarked) [Cpd012, 2-(2-methyl-4-p-tolyl-7,8-dihydro-6H-cyclopenta[g]quinolin-3-yl)pentanoic acid] | 0.53 µM | 82 µM | > 20 µM | 1.68 µM
